Target: T1, estrogen receptor α (ER-α) (Homo sapiens, UniProt P03372)
T1 sequence (P03372 311-547 limits assumed): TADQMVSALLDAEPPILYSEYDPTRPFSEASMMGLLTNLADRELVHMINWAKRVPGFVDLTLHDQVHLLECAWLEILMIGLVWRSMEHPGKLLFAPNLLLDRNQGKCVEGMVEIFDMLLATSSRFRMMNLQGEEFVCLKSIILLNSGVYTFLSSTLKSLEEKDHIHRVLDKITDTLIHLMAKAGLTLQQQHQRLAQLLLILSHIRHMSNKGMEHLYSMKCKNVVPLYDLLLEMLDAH
Assay: LanthaScreen TR-FRET competitive binding assay

`CC(C)c1cc2c(c(O)c1O)[C@@]13CCCC(C)(C)[C@@H]1C[C@@H]2OC3=O` [carnosol] gave an IC50 of 51 µM.
